# According to US12194021B2, “Modified herbal compositions for neuromodulation” (University of Southern California, priority 2021, dated 2025):
# Marks after values point to notes of the source that are not given here.
# Columns and labels:
# gephyrin = details: previously reported (Liang et al., 2014); cited from earlier work
# [1] = Anecdotal test of effects on sleep
# Experimental: We did an Anecdotal Test of the Effects of DHM on Sleep. […] They were given combination-formula (Comb-D, 1 serving size), DHM (250 mg), or melatonin (10 mg). After a week, we started collecting their reported sleep duration.
# GABAARs = experiment: Whole-cell voltage-clamped recordings from hippocampal DGCs in slices (Itonic, mIPSCs); type: cell-based, rats; details: for GABAergic Itonic: basal Itonic 20 pA
# Excerpt: 2) Whole-Cell Patch-Clamp Recordings from Brain Slices. Transverse slices (400 lm) of dorsal hippocampus were obtained from wt and TG-SwDI mice (male, 20 months old) using a vibratome (VT 100; Technical Products International). Slices were perfused continuously with artificial CSF (ACSF) composed of the following (in mM): 125 NaCl, 2.5 KCl, 2 CaCl2, 2 MgCl2, 26 NaHCO3, and 10 D-glucose. The ACSF was bubbled continuously with 95% O2/5% CO2 to ensure adequate oxygenation of slices and a pH of 7.4 and kept at 34±0.5° C. for perfusion. TTX (0.5 μM), APV (40 μM), CNQX (10 μM), and CGP54626 (1 μM, GABABR antagonist) were added to ACSF to pharmacologically isolate GABAAR-mediated mIPSCs. Patch electrodes were filled with internal solution containing the following (in mM): 137 CsCl, 2 MgCl2, 1 CaCl2, 11 EGTA, 10 HEPES, and 3 ATP, pH adjusted to 7.30 with CsOH. Recordings targeted dentate gyms granule cells (DGCs) of hippocampal slices. Voltage-clamp whole-cell recording was performed using a patch clamp amplifier 3) EPM: All animals were tested anxiety levels on EPM. Animals were placed on the central area of the maze, tested for 5 min and video recorded. The following measures were scored: number of entries into open arms, closed arms, or center platform and time spent in each of these areas. Data were reported as % of number of entries in arms, % of time spent in different entries, and number of total entries.
# To evaluate whether DHM-Piperidine Complex (D-P) can still potentiate GABAARs, whole-cell voltage-clamped recordings from hippocampal DGCs in slices were performed to test D-P and compared with DHM effects on GABAergic tonic current (Itonic) and miniature inhibitory postsynaptic currents (mIPSCs). […] Compared with DHM enhancing GABAergic Itonic from 20 pA (basal Itonic)→28 pA→31 pA→52 pA→55 pA, D-P enhancing GABAergic Itonic from 20 pA (basal Itonic)→35 pA→42 pA →65 pA→70 pA (Table 1).
# mice = experiment: Elevated plus maze (EPM), anxiolytic effect of combination form; type: in vivo; details: 45 min after oral administration, comb 0.5, 1, 2 serving size, diazepam 2 mg/kg
# Experimental: Alternatively, the elevated plus maze for mice can consist of two opposing open (24×8 cm) and two enclosed arms (24×8×25 cm) connected by a central platform forming the shape of a plus sign. The dimensions of the central field which connects the open and closed arms are 8×8 cm. The plus maze was elevated to a height of 50 cm. Each mouse was immediately placed in the central square of the apparatus with the head facing one of the closed arms. Mice behavior during 5 min was observed and recorded by means of a video camera (Canon Digital, Japan), which was fixed to the wall above the elevated plus maze. In this test, the following parameters were detected and calculated: the number of entries (open arm entries and closed arm entries), % of open arm entries, and % of time spent in open arms.
# Anxiolytic effect evaluation of combination form (comb). A characteristic of the anxiolytic effects of comb (0.5, 1, and 2 serving size) was evaluated by elevated plus maze (EPM) tests (Table 3; FIG. 6). The EPM is considered an etiologically valid assessment of anxiolytic/anxiety in rodents because it uses natural stimuli (fear of a novel, brightly lit open space, and fear of balancing on a relatively narrow, raised platform) to determine anxiety-like behavior in animals. Anxiolytics are known to exert their pharmacological action by causing an increase in GABAergic neurotransmission in the brain.
# Statistical analysis: one-way ANOVA, followed by Holm-Sidak post hoc comparison. […] Data were expressed as the means ±SEM, (n=7/group) percentage of open arm entries or of time spent on open arms in mice given a 5-min test, 45 min after oral administration of comb (0.5, 1, 2 serving size), or vehicle.
structure (smiles),measurement,setting,value
"O=C1c2c(O)cc(O)cc2O[C@H](c2cc(O)c(O)c(O)c2)[C@H]1O [DHM, dihydromyricetin, reference compound]",GABAergic inhibitory transmission / gephyrin in TG mouse models,gephyrin,restores impaired GABAergic inhibitory transmission
same,sleep duration (average),[1]; 250 mg oral daily,5.5±0.65
same,start of improvement of sleep,[1]; 250 mg oral daily,1 to 7 days
same,dependence after finishing three-month test,[1],without dependence
same,"Itonic, percent in brackets (increase over basal)",GABAARs; 0.1 μM,(40%)*
same,mIPSCs (area potentiated),GABAARs; 0.1 μM,5.0%
same,GABAergic Itonic,GABAARs; 0.1 μM,28 pA
same,"Itonic, percent in brackets (increase over basal)",GABAARs; 0.3 μM,(55%)*
same,mIPSCs (area potentiated),GABAARs; 0.3 μM,13.3%*
same,GABAergic Itonic,GABAARs; 0.3 μM,31 pA
same,"Itonic, percent in brackets (increase over basal)",GABAARs; 1 μM,(160%)*
same,mIPSCs (area potentiated),GABAARs; 1 μM,58.3%*
same,GABAergic Itonic,GABAARs; 1 μM,52 pA
same,"Itonic, percent in brackets (increase over basal)",GABAARs; 10 μM,(175%)*
same,mIPSCs (area potentiated),GABAARs; 10 μM,53.3%*
same,GABAergic Itonic,GABAARs; 10 μM,55 pA
CN1C(=O)CN=C(c2ccccc2)c2cc(Cl)ccc21 [diazepam],number of closed arm entries,mice,little effect
same,total number of arm entries,mice,significantly increased
same,percentage of open arm entries,mice; p<0.01,significantly elevated
COc1ccc2[nH]cc(CCNC(C)=O)c2c1 [melatonin],complaints (discomfort),[1]; 10 mg oral daily,"dizziness on the second day, loss of energy, and other feelings of discomfort"
same,time to show improvement in sleep,[1]; 10 mg oral daily,took a month
same,sleep duration (average),"[1]; 10 mg oral daily, in 40% attendees",4.3 ± 0.9 h
same,dependence after finishing three-month test,[1],suffered withdrawal from the test
